# From patent US7767417B2, “Prenyl-electrostatic switch, and methods of use” (New York University, priority 2004, dated 2010)
# Legend:
# GFP-K-Ras = assay: Live-cell imaging of GFP-K-Ras translocation from plasma membrane to internal membranes; assay type: cell-based, human; conditions: for effect of inhibitor pretreatment on stimulated K-Ras translocation: 100 nM Ro 31-8220 or 15 μg/ml W-13, 10 min prior to stimulation with bryostatin-1 or PMA+Iono
# Description: COS-1, HeLa, and MDCK cells were maintained in 5% CO2 in Dulbecco's Modified Eagle Medium (“DMEM”) supplemented with 4 mM 1-glutamine, 1.5 g/L sodium bicarbonate, 4.5 g/L glucose, and 10% fetal bovine serum (“FBS”) (Cellgro®). MDCK cells stably expressing GFP-K-Ras or GFP-H-Ras were selected in G418 and sorted by FACS to yield cell lines expressing relatively low levels of the fluorescent Ras proteins (1-3 fold endogenous by immunoblots). NIH 3T3 cells were maintained in 10% CO2 in DMEM supplemented with 4 mM 1-glutamine, 1.5 g/L sodium bicarbonate, 4.5 g/L glucose, and 10% calf serum (Colorado Serum Co., Denver, Colo.). Jurkat T cells were maintained in 5% CO2 in RPMI containing 10% FBS. Cells to be examined by fluorescence microscopy were seeded at 2×10^5 per plate into 35 mm dishes containing a glass coverslip-sealed 15 mm cutout (MatTek, Ashland, Mass.) and transfected the next day using Lipofectamine (Invitrogen, Carlsbad, Calif.; NIH 3T3), Lipofectamine 2000 (Invitrogen, Carlsbad, Calif.; COS-1, HeLa, MDCK), or DMRIE (Invitrogen, Carlsbad, Calif.; Jurkat), according to the manufacturers' instructions. To ensure co-transfection of untagged cDNAs and fluorescent constructs, a DNA ratio of at least 5:1 (untagged:fluorescent) was used.
# (§1) Cells were stimulated while under continuous observation by adding 100 nM bryostatin-1 (Biomol), 100 nM PMA with or without 500 ng/ml lonomycin, or 5 ng/ml anti-CD3 to 35 mm MatTek plates maintained at 37° C. using a PDMI-2 microincubator (Harvard Apparatus, Holliston, Mass.). Treatment of cells with 100 nM Ro 31-8220 (Biomol, Plymouth Meeting, Pa.) or 15 μg/ml W-13 Hydrochloride (EMD Biosciences, San Diego, Calif.) was initiated 10 min prior to stimulations. Where indicated, 25 pM MitoTracker Red CMXRos (Molecular Probes, Eugene, Oreg.) was added 10 min prior to stimulation. Living cells were imaged with a Zeiss 510 inverted laser scanning confocal microscope (“LSM”). A minimum of five […] Z slices were acquired for each cell at each time point and representative images were chosen to display both plasma membrane and endomembranes. Fluorescence resonance energy transfer (“FRET”) on mitochondria between CFP-K-Ras and YFP-Bcl-XL was detected by bleaching the acceptor (YFP-Bcl-XL) on individual mitochondria and measuring the increase in CFP emission intensity as quenching was released. FRET efficiency was calculated as [ICFP(post-bleach)−ICFP(pre-bleach)]/ICFP(post-bleach). TIFF images were processed with Adobe Photoshop 7.0.
# [1] = system: NIH3T3 cells transformed with K-Ras12V or K-Ras12V181A; assay: Apoptosis of K-Ras transformed fibroblasts; assay type: cell-based
# Description: To confirm that K-Ras12V phosphorylated on S181, like phosphomimetic K-Ras12V181E, is pro-apoptotic, the capacity of PKC agonists to induce apoptosis of K-Ras transformed fibroblasts was examined. […] Thus, the sensitization to PKC-mediated apoptosis afforded by K-Ras transformation can be attributed to phosphorylation at S181.
# endogenous Ras = assay: Anti-Ras immunogold electron microscopy of Jurkat T cells; assay type: cell-based
# Description: Jurkat cells (in suspension) were treated with 100 nM bryostatin-1 or vehicle (dimethyl sulfoxide (“DMSO”)) for 30 minutes at 37° C. and then fixed with 2% formaldehyde and 0.2% glutaraldehyde in 0.1 M sodium phosphate buffer, pH 7.4. After washing in buffer, the cells were pelleted by centrifugation, embedded in 10% gelatin, cooled in ice, and cut into 1-mm^3 blocks in the cold room. The blocks were infused with 2.3 M sucrose at 4° C. for at least 2 hours, frozen in liquid nitrogen, and stored until cryo-ultramicrotomy. 100-nm-thick section were cut at −120° C. using an Ultracut T/FCS (Leica) equipped with an antistatic device (Diatome) and a diamond knife (Drukker). Ultrathin sections were picked up in a mix of 1.8% methylcellulose and 2.3 M sucrose (1:1) (Liou et al., “Improving Structural Integrity of Cryosections for Immunogold Labeling,” Histochemistry and Cell Biology 106:41-58 (1996), which is hereby incorporated by reference in its entirety). Cryosections were collected on formvar-coated copper grids and incubated with Ras10 monoclonal antibody (Upstate, Charlottesville, Va.) followed by rabbit anti-mouse antibodies and then protein A gold (Slot et al., “A New Method of Preparing Gold Probes for Multiple-Labeling Cytochemistry,” Eur. J. Cell. Biol. 38:87-93 (1985), which is hereby incorporated by reference in its entirety). After labeling, the sections were treated with 1% glutaraldehyde, counterstained with uranyl acetate, and embedded in methyl cellulose-uranyl acetate (Slot et al., “Immuno-Localization of the Insulin Regulatable Glucose Transporter in Brown Adipose Tissue of the Rat,” J. Cell. Biol. 113:123-135 (1991), which is hereby incorporated by reference in its entirety). Images were acquired with a JEOL electron microscope JEM-1200 EX II at 80 kV.
# K-Ras12V and Bcl-XL = assay: Colocalization and FRET between K-Ras12V and Bcl-XL on mitochondria; assay type: cell-based, human
# Description: as §1
# a variety of tumors = conditions: phase I and II trials, cited from earlier work
# [2] = system: NIH 3T3 cells stably transfected with K-Ras12V or K-Ras12V181A; assay: Soft agar assay; assay type: cell-based; conditions: two weeks
# Description: NIH 3T3 cells stably transfected with pCGN-hyg, or the same vector encoding K-Ras12V or K-Ras12V 181 A were plated as single cell suspensions (2×10^4 cells/35-mm well) in 0.4% agar over a bottom layer of 0.6% agar, both containing DMSO vehicle or various concentrations of bryostatin-1. After two weeks, the percentage of plated cells that formed colonies (>5 cell diameters across) was determined.
# [3] = system: K-Ras12V-dependent tumors; assay: Tumor growth assay in nude mice; assay type: in vivo, athymic nude BALB/c mice; conditions: intraperitoneal 25 μg/kg daily for 3 days
# Description: NIH 3T3 cells stably transfected as per the soft agar assays were injected (5×10^5 cells) subcutaneously into the flanks of 4-6 week old athymic nude BALB/c mice. After formation of palpable tumors, mice were treated daily for 3 days with intraperitoneal DMSO vehicle or bryostatin-1 (25 μg/kg). Tumor volume was measured daily and differences in growth rates were evaluated for statistical significance by ANOVA.
# K-Ras = assay: Metabolic labeling with [32P]orthophosphate of COS-1 cells expressing K-Ras constructs; assay type: cell-based, human; conditions: 100 nM bryostatin-1 for 20 min
# Description: Twenty-four hours after transfection with various K-Ras constructs, COS-1 cells were pre-incubated at 37° C. for 4 hours in phosphate-free DMEM containing 10% dialyzed fetal calf serum (“FCS”). The medium was then replaced with phosphate-free DMEM containing 2 mCi of [^32P]orthophosphate. After 6 hours of labeling, the cells were stimulated with 100 nM bryostatin-1 for 20 min at 37° C. Jurkat cells were rinsed three times with prewarmed phosphate-free DMEM, and then incubated at 37° C. for 6 hours in phosphate-free DMEM containing 10% FBS (3:1 undialyzed:dialyzed) and 0.5 mCi/ml [^32P]orthophosphate. After incubation, the ^32P-labeled cells were rinsed with prewarmed phosphate-free DMEM, and then stimulated with either anti-CD3 (10 μg/ml) or vehicle control for 30 min at 37° C. Both types of cells were then lysed in RIPA buffer containing protease inhibitors (Roche, Basel, Switzerland) and 10 μM microcystin and 5 mM NaF. K-Ras was immunoprecipitated using agarose conjugated with Y13-259 monoclonal anti-Ras antibody (Santa Cruz Biotechnology, Inc., Santa Cruz, Calif.), analyzed by SDS-PAGE and visualized by phosphorimager.
# [4] = 100 nM bryostatin-1, living cells
compound,measurement,setting,value
NCCCCNS(=O)(=O)c1ccc2c(Cl)cccc2c1 [W-13],effect of inhibitor pretreatment on stimulated K-Ras translocation,GFP-K-Ras,had no effect
C=C1[C@@H](O)[C@@H]2O[C@]3(CC[C@H](/C=C/[C@@H](C)[C@@H]4CC(C)=C[C@@]5(O[C@H](C[C@@](C)(O)C(=O)O)CC[C@H]5O)O4)O3)CC[C@H]2O[C@@H]1[C@@H](O)C[C@H](C)[C@H]1O[C@@]2(CCCCO2)CC[C@H]1C [okadaic acid],effect on GFP-K-Ras localization (translocation/internalization),"GFP-K-Ras; 100 nM PMA with or without 500 ng/ml ionomycin, compared with bryostatin-1",induced partial internalization
CCC/C=C/C=C/C(=O)O[C@H]1/C(=C/C(=O)OC)C[C@H]2C[C@H]([C@@H](C)O)OC(=O)C[C@H](O)C[C@@H]3C[C@H](OC(C)=O)C(C)(C)[C@](O)(C[C@@H]4C/C(=C/C(=O)OC)C[C@H](/C=C/C(C)(C)[C@]1(O)O2)O4)O3 [bryostatin-1],induction of apoptosis in K-Ras12V versus K-Ras12V181A transformed cells,[1],induced apoptosis to a much higher extent in cells transformed with K-Ras12V than those transformed with K-Ras12V181A
same,10 nm gold particles per area of cytoplasm (excluding plasma membrane),"endogenous Ras; 100 nM bryostatin-1 30 min, untreated 6.4±0.5",31.0±1.1 gold particles/μm^2
same,gold particles associated with mitochondria,endogenous Ras; bryostatin-1 treated,49%
same,mitochondria associated gold particles located within 30 nm of the outer mitochondrial membrane,endogenous Ras; bryostatin-1 treated,81%
same,FRET efficiency between YFP-K-Ras12V and CFP-Bcl-XL on treated mitochondria,"K-Ras12V and Bcl-XL; Cos-1 cell, 5 min after bryostatin-1",17±8%
same,colocalization of CFP-K-Ras12V with YFP-Bcl-XL on outer mitochondrial membrane,K-Ras12V and Bcl-XL; after stimulation with PKC agonist,colocalized with YFP-Bcl-XL
same,onset of translocation of GFP-K-Ras from the plasma membrane to intracellular membranes,GFP-K-Ras; [4],< 1 min
same,time to maximal translocation of GFP-K-Ras from the plasma membrane to intracellular membranes,GFP-K-Ras; [4],3 min
same,reversibility of effect on K-Ras localization,"GFP-K-Ras; COS-1 cells, GFP-K-Ras12V, 3 min treatment, 10 min washout",reversible
same,association of GFP-K-Ras / GFP-H-Ras with mitochondria,"GFP-K-Ras; MDCK cell lines stably expressing at endogenous levels, MitoTracker Red",stimulated rapid association of GFP-K-Ras but not GFP-H-Ras with mitochondria
same,clinical efficacy,a variety of tumors; variety of tumors,exhibited clinical efficacy
same,toxicity,a variety of tumors,minimal toxicity
same,soft agar growth induced by K-Ras12V181A,[2]; K-Ras12V181A,insensitive
same,K-Ras12V induced colony growth of fibroblasts in soft agar,[2]; K-Ras12V,inhibited
same,growth of tumors established with K-Ras12V181A transformed fibroblasts,[3],resistant
same,growth of tumors established with K-Ras12V transformed fibroblasts,"[3]; p<0.05, ANOVA",sensitive
same,phosphorylation of K-Ras (32P incorporation),K-Ras,induced phosphorylation
Cn1cc(C2=C(c3cn(CCCSC(=N)N)c4ccccc34)C(=O)NC2=O)c2ccccc21 [Ro 31-8220],effect of inhibitor pretreatment on stimulated K-Ras translocation,GFP-K-Ras,completely blocked
